Source: patent US6956040B2, “Oxazolidinone piperazinyl derivatives as potential antimicrobials” (Ranbaxy Laboratories Limited, priority 2001, dated 2005)
Converted amounts (≈) assume the structure as drawn.

Experiments:
MRSA 15187 = assay: MIC, agar incorporation method; format: cell-based, Staphylococcus aureus; conditions: MRSA 15187; agar incorporation
Outline: (§1)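 Doubling dilutions of compounds in DMSO incorporated into Mueller Hinton agar; 10^4 CFU/spot inoculated from 0.5 McFarland suspensions and incubated 18 h. MIC (μg/ml) taken as lowest concentration with no growth, accepted only when standard antibiotics fell within range on ATCC control strains.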

S. aureus 25923 = assay: MIC, agar incorporation method; format: cell-based, Staphylococcus aureus; conditions: S. aureus 25923; agar incorporation
Outline: as §1

S. pneum AB 34 = assay: MIC, agar incorporation method; format: cell-based, Streptococcus pneumoniae; conditions: S. pneum AB 34; agar incorporation
Outline: (§2)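 Read-out was the lowest drug level giving no growth of the spotted culture (μg/ml). Doubling dilutions had been mixed into molten Mueller Hinton agar, plates spotted with 10^4 CFU and incubated 18 hours, or 24 hours for MRSN studies.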

S. pneum 6303 = assay: MIC, agar incorporation method; format: cell-based, Streptococcus pneumoniae; conditions: S. pneum 6303; agar incorporation
Outline: as §1

S. pyogenes 19615 = assay: MIC, agar incorporation method; format: cell-based, Streptococcus pyogenes; conditions: S. pyogenes 19615; agar incorporation
Outline: as §1

MRSA 562 [1] = assay: In vivo activity against MRSA 562 (ED50); design: species or system Staphylococcus aureus
VRE 6A = assay: MIC, agar incorporation method; format: cell-based, Enterococcus faecium; conditions: VRE 6A; agar incorporation
Outline: as §1

S. pneumoniae = assay: Summary of in vitro activity (MIC) against S. pneumoniae; format: cell-based, Streptococcus pneumoniae; conditions: S. pneumoniae; for MIC50 / MIC90: Number 19
Method: (§3) The compounds of the invention display antibacterial activity when tested by the agar incorporation method. The following minimum inhibitory concentrations (μg/ml) were obtained for representative compounds of the invention which are given below in the following tables.
(§4) Briefly, the compounds were dissolved in DMSO and doubling dilution of the compounds were incorporated into Meuller Hilton agar before solidification. Inoculum was prepared by suspending 4 to 5 colonies into 5 ml of normal saline solution and adjusting the turbidity to 0.5 Macfarland turbidity standard tables (1.5×10^8 CFU/ml), after appropriate dilutions, 10^4 CFU/spot was transfered into the surface of dried plate and incubated for 18 hours (24 hours for MRSN studies). The concentration showing no growth of the inoculated culture was recorded as the MIC. Appropriate ATCC standard strains were simultaneously tested and result recorded only when the MIC's against standard antibiotics were within the acceptable range.

E. faecalis = assay: Summary of in vitro activity (MIC) against E. faecalis; format: cell-based, Enterococcus faecalis; conditions: E. faecalis; for MIC50 / MIC90: Number 7
Method: as §3, §4

MRSA 562 [2] = assay: MIC, agar incorporation method; format: cell-based, Staphylococcus aureus; conditions: MRSA 562
Outline: as §2

MRSA 33 = assay: MIC, agar incorporation method; format: cell-based, Staphylococcus aureus; conditions: MRSA 33; agar incorporation
Outline: as §2

E. faecalis 29212 = assay: MIC, agar incorporation method; format: cell-based, Enterococcus faecalis; conditions: E. faecalis 29212; agar incorporation
Outline: as §1

S. aureus = assay: Summary of in vitro activity (MIC) against S. aureus; format: cell-based, Staphylococcus aureus; conditions: S. aureus; for MIC50 / MIC90: Number 8
Method: as §3, §4

[3] = Changes in MIC under different conditions: Agar MIC; format: cell-based; conditions: strain not given
Method: as §3, §4

[4] = Changes in MIC under different conditions: Broth MIC; format: cell-based; conditions: strain not given
G+ve = assay: Summary of in vitro activity (MIC) against G+ve bacteria; format: cell-based; conditions: for MIC50 / MIC90: G+ve, Number 49
Method: as §3, §4

CC(=O)NC[C@H]1CN(c2ccc(N3CCN(C(=O)c4ccc([N+](=O)[O-])s4)CC3)c(F)c2)C(=O)O1.Cl [Compound No. 29, (S)-N[[3-[3-Fluoro-4-[N-1[4-(5-nitro-2-thienoyl)]piperazinyl]-phenyl]2-oxo-5-oxazolidinyl]methyl]acetamide hydrochloride]
MIC (MRSA 15187): <0.1 µg/mL
MIC (S. aureus 25923): 0.25 µg/mL
MIC (S. pneum AB 34): 1 µg/mL
MIC (S. pneum 6303): 1 µg/mL
MIC (S. pyogenes 19615): 1 µg/mL
ED50 (mg/kg body weight) PO (MRSA 562 [1]): >25 mg/kg body weight
MIC (VRE 6A): 0.5 µg/mL
MIC50 (S. pneumoniae): 1 µg/mL
MIC90 (S. pneumoniae): 1 µg/mL
MIC50 (E. faecalis): 1 µg/mL
MIC90 (E. faecalis): 1 µg/mL
MIC (MRSA 562 [2]; Table 5): <0.1 µg/mL
MIC (MRSA 562 [2]; agar incorporation, Table 1): <0.1 µg/mL
MIC (MRSA 33): <0.1 µg/mL
MIC (E. faecalis 29212): 1 µg/mL
MIC50 (S. aureus): 0.064 µg/mL
MIC90 (S. aureus): 0.25 µg/mL
Agar MIC [3]: <0.1 µg/mL
Broth MIC +50% Sheep serum [4]: 0.5 µg/mL
Broth MIC Normal MH broth [4]: 0.25 µg/mL
MIC50 (G+ve): 1 µg/mL
MIC90 (G+ve): 1 µg/mL

CC(=O)NC[C@H]1CN(c2ccc(N3CCC(N(C)C(=O)c4ccc([N+](=O)[O-])o4)CC3)c(F)c2)C(=O)O1 [Compound No. 44]
MIC (MRSA 15187): <0.1 µg/mL
MIC (S. aureus 25923): 0.25 µg/mL (≈ 0.497 µM)
MIC (S. pneum AB 34): 2 µg/mL (≈ 3.97 µM)
MIC (S. pneum 6303): 2 µg/mL (≈ 3.97 µM)
MIC (S. pyogenes 19615): 0.5 µg/mL (≈ 0.993 µM)
ED50 (mg/kg body weight) PO (MRSA 562 [1]): >25 mg/kg body weight
MIC (VRE 6A): <0.1 µg/mL
Geometric Mean of in vitro activity (MIC) (S. pneumoniae): 0.96 µg/mL
MIC50 (S. pneumoniae): 1 µg/mL (≈ 1.99 µM)
MIC90 (S. pneumoniae): 2 µg/mL (≈ 3.97 µM)
Geometric Mean of in vitro activity (MIC) (E. faecalis): 0.11 µg/mL
MIC50 (E. faecalis): 0.064 µg/mL (≈ 0.127 µM)
MIC90 (E. faecalis): 0.25 µg/mL (≈ 0.497 µM)
MIC (MRSA 562 [2]; Table 5): <0.1 µg/mL
MIC (MRSA 562 [2]; agar incorporation, Table 1): <0.1 µg/mL
MIC (MRSA 33): <0.1 µg/mL
MIC (E. faecalis 29212): 0.25 µg/mL (≈ 0.497 µM)
Geometric Mean of in vitro activity (MIC) (S. aureus): 0.11 µg/mL
MIC50 (S. aureus): 0.064 µg/mL (≈ 0.127 µM)
MIC90 (S. aureus): 0.25 µg/mL (≈ 0.497 µM)
Agar MIC [3]: <0.1 µg/mL
Broth MIC +50% Sheep serum [4]: 0.25 µg/mL
Broth MIC Normal MH broth [4]: <0.1 µg/mL
MIC50 (G+ve): 0.5 µg/mL (≈ 0.993 µM)
MIC90 (G+ve): 2 µg/mL (≈ 3.97 µM)
Geometric Mean of in vitro activity (MIC) (G+ve; Gram +ve): 0.31 µg/mL
